Test results reported in patent US20100184601A1, “Method and Means Relating to Multiple Herbicide Resistance in Plants” (University of Durham, priority 2007, published 2010).

Tested on: AmGSTL1
Experiment: Effect of inhibitors on activity of recombinant black-grass AmGSTL (thiol transferase)
Type: biochemical, black-grass (Alopecurus myosuroides)
Details: 0.1 mM inhibitor; recombinant enzyme

O=C1O/C(=C/Br)CCC1c1cccc2ccccc12 (stereo not shown) [BEL, Bromoenol lactone]
inhibition of AmGSTL1 activity: totally inhibited
